According to publication PMC3713097 (Chemical research in toxicology, 2013):
Read-outs that look alike come from different tables or passages of the source.

Columns and labels:
human P450 2A13 [1] = target: T1, human P450 2A13 (Homo sapiens, UniProt Q16696); settings: 10 nM P450, 2.5 µM procarcinogen, means ± range of duplicate experiments
T1 sequence (Q16696 31-494 limits assumed): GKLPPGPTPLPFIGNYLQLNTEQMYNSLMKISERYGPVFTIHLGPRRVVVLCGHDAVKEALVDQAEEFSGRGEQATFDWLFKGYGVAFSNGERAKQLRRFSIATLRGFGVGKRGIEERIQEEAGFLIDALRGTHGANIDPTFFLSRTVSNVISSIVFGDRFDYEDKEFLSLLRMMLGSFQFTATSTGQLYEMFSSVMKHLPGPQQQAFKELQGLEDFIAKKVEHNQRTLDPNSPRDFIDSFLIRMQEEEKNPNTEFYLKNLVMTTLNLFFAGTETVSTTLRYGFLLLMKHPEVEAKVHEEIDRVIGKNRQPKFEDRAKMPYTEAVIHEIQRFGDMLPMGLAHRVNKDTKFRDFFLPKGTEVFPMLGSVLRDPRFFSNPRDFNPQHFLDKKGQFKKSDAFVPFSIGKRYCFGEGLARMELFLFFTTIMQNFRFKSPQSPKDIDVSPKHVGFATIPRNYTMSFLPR

P450 1B1 [2] = target: T2, P450 1B1 (Homo sapiens, UniProt Q16678, L432V); assay: Spectral binding titration with purified P450 1B1
T2 sequence (Q16678 1-543 L432V): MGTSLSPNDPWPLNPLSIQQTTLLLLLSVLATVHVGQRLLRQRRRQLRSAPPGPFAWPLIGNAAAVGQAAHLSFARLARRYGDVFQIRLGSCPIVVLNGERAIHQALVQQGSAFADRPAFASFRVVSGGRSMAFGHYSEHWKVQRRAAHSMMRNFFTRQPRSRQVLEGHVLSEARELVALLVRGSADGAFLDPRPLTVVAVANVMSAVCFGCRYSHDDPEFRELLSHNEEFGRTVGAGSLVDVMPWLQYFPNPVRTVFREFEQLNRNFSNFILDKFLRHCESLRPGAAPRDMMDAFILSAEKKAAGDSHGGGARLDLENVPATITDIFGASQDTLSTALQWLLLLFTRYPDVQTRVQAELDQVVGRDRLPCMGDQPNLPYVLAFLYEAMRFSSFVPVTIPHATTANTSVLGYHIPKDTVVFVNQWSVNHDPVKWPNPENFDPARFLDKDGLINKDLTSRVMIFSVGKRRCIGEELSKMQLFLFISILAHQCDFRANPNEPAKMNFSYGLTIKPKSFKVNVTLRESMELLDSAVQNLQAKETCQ

P450 1B1 [3] = target: T2, P450 1B1; settings: 10 nM P450, 2.5 µM procarcinogen, means ± range of duplicate experiments
P450 2A6 [4] = target: T3, P450 2A6 (Homo sapiens, UniProt P11509); settings: pH 7.4
T3 sequence (P11509 1-494): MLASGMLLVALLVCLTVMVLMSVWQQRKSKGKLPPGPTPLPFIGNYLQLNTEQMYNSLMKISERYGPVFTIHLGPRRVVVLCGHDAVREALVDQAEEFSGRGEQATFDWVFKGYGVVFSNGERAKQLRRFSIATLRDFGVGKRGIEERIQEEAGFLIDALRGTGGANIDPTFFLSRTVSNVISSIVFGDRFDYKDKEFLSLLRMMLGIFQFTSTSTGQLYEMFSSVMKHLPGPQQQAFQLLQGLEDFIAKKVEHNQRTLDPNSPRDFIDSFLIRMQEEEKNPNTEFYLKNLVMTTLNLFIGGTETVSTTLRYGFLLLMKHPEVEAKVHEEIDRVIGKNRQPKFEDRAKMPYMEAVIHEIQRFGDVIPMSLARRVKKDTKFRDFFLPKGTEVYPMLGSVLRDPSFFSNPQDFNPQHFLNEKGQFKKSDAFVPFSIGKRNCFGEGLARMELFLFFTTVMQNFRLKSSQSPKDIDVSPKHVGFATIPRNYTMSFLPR

P450 2A13 = target: T4, P450 2A13 (Homo sapiens, UniProt Q16696); assay: Spectral binding titration with purified P450 2A13
T4 sequence (Q16696 with tags, fused parts or gaps limits assumed): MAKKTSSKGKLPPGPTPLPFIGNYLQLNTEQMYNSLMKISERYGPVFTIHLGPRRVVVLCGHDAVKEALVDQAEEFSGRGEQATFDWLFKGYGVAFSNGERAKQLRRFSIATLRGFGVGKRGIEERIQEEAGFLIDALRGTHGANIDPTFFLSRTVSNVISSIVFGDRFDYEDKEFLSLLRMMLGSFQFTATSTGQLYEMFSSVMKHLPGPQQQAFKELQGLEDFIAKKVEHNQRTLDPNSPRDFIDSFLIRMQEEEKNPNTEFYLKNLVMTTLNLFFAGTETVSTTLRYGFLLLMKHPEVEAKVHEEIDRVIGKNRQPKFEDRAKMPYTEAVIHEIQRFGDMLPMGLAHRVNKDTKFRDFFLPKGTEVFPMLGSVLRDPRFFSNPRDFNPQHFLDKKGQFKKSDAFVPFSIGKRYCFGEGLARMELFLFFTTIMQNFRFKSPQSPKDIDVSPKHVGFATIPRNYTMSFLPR

P450 1B1 [5] = target: T2, P450 1B1; settings: pH 7.4
human P450 2A13 [6] = target: T1, human P450 2A13; settings: pH 7.4
P450 2A6 [7] = target: T3, P450 2A6; assay: Spectral binding titration with purified P450 2A6

SMILES	Kd (P450 1B1 [2]) [µM]	activation of procarcinogens umu gene expression (P450 2A6 [4]) [units/min/nmol P450]	Kd (P450 2A13) [µM]	activation of procarcinogens umu gene expression (P450 1B1 [5]) [units/min/nmol P450]	activation of procarcinogens umu gene expression (human P450 2A13 [6]) [units/min/nmol P450]	activation of procarcinogens umu gene expression (P450 2A6 [4]; 2.5 µM) [units/min/nmol P450]	activation of procarcinogens umu gene expression (P450 1B1 [5]; 2.5 µM) [units/min/nmol P450]	activation of procarcinogens umu gene expression (human P450 2A13 [6]; 2.5 µM) [units/min/nmol P450]	other results
OC1C=Cc2c(cc3ccc4cccc5ccc2c3c45)C1O (racemic) [( ± )B[a]P-7,8-diol, 7,8-dihydroxy-7,8-dihydrobenzo[a]pyrene]	6.8 ± 1.2	45 ± 11	> 20						activation of procarcinogens umu gene expression (human P450 2A13 [1]): 136 ± 22 units/min/nmol P450; ΔAmax/ Ks (P450 1B1 [2]; P450 1B1, Reverse Type I spectra): 0.0035; ΔAmax (P450 1B1 [2]; P450 1B1, Reverse Type I spectra, ± SE): 0.024 ± 0.002; activation of procarcinogens umu gene expression (P450 1B1 [3]): 2600 ± 110 units/min/nmol P450
Cc1c2ccccc2c(C)c2c1ccc1ccccc12 [7,12-DMBA, 7,12-dimethylbenz[a]anthracene]	8.8 ± 1.3	<10	> 20	190 ± 21	<10				ΔAmax (P450 1B1 [2]): 0.039 ± 0.002; ΔAmax/ Ks (P450 1B1 [2]): 0.0044
Cc1c2ccccc2c(C)c2c3c(ccc12)C(O)C(O)C=C3 (stereo not drawn) [7,12-DMBA-3,4-diol, 3,4-dihydroxy-3,4-dihydro-7,12-dimethylbenz[a]anthracene]						55 ± 13	2700 ± 110	280 ± 33	Kd (P450 1B1 [2]; human, pH 7.4): > 20 µM; Kd (P450 2A13; human, pH 7.4): > 20 µM
OC1C=Cc2c(ccc3cc4ccccc4cc23)C1O (stereo not drawn) [B[a]A-trans-3,4-diol, 3,4-dihydroxy-3,4-dihydrobenz[a]anthracene]						<10	<10	<10	Kd (P450 1B1 [2]; human, pH 7.4): > 20 µM
Cc1cnc2ccc3c(nc(N)n3C)c2n1 [MeIQx, 2-amino-3,8-dimethylimiidazo[4,5-f]quinoxaline]		45 ± 15		87 ± 11	110 ± 15				
Cc1c(N)nc(C)c2c1[nH]c1ccccc12 [Trp-P-1, 3-amino-1,4-dimethyl-5H-pyrido[4,3-b]indole]	> 20	61 ± 11		910 ± 90	40 ± 9				
C1=Cc2cccc3cccc1c23 [acenaphthylene]	> 20		0.61 ± 0.19			<10	<10	<10	Kd (P450 2A6 [7]): 4.4 ± 0.52 µM; spectral interaction with P450 2A6 (Type I binding spectra) (P450 2A6 [7]): interacted; ΔAmax (P450 2A6 [7]): 0.076 ± 0.52; ΔAmax/ Ks (P450 2A6 [7]): 0.017; ΔAmax (P450 2A13): 0.050 ± 0.004; ΔAmax/ Ks (P450 2A13): 0.082
c1ccc2c(c1)-c1cccc3cccc-2c13 [fluoranthene]	1.6 ± 0.32	<10	2.4 ± 1.5	<10	<10				Kd (P450 2A6 [7]): > 20 µM; ΔAmax (P450 1B1 [2]): 0.066 ± 0.003; ΔAmax/ Ks (P450 1B1 [2]): 0.042; ΔAmax (P450 2A13): 0.044 ± 0.011; ΔAmax/ Ks (P450 2A13): 0.018
